Measured values: patent publication US20030130180A1, “Utilization of an aminopeptidase inhibitor” (priority 2000, published 2003)

System: Karpas cells
Assay: Detection of surface protein combinations of the protein network on untreated (V1) and actinonin-treated (V2) Karpas cells
Format: cell-based
Conditions: for V2 no. of cells / V2 no. of cells In 1/1OOO: actinonin-treated Karpas cells
Text: Principally, detecting of the surface protein combinations may comprise procedural steps of an automated method for determining molecular classes, molecular groups or molecular parts in a solid or liquid object according to DE 197 09 348 C. In these steps, surface proteins may be examined and measured in one and the same object, i.e. in a sample of immune cells and/or tumor cells for example, by sequentially applying reagent solutions Yn (n=1,2,3, . . . N) by means of an automated apparatus, said procedural steps being: I. taking a first reagent solution Y1 from a vessel containing the reagent solution, II. applying said reagent solution Y1 to the object which is on an object slide, III. allowing the reagent solution to react for an automatically set period of time, IV. recording at least one individual labeling pattern of the object previously labeled with said first reagent solution Y1, V. repeating steps I-IV by applying said first reagent solution Y1 or a second reagent solution Y2 or a mixture of said first and second reagent solutions, and VI. repeating steps I to V with further reagent solutions Yn (n=2,3, . . . N) or a mixture thereof and whereby the labeling distribution patterns obtained in each cycle of the method are turned into a complex molecular combination pattern of the object to be examined by computer-aided image overlay. From this combination pattern, information may be gained on the presence of the above mentioned proteins, thus also allowing detection of the surface protein combinations, if the reagent solutions used contain labeled substances directed against the proteins in question. In numerous examinations, it was possible to identify the 30 cell surface proteins already listed above which belong to a specific protein network controlling the early polarization stages of tumor cells and immune cells. In a further examination, surface protein combinations of this protein network of Karpas cells were detected, both in untreated form and after treatment with the aminopeptidase inhibitor actinonin. For this purpose, two groups V1 and V2 of Karpas cells were formed, with the cells of group Vl remaining untreated, while the cells of group V2 were treated with actinonin. Table 2 lists those surface protein combinations which are present both in the actinonin-treated cells and in the untreated cells. However, this table and the further tables 3 and 4 only give examples of 18 of the 30 proteins, with the detected proteins being designated 1 and the non-detected proteins being designated 0. The proteins are continuously numbered 1 to 18, with the nomenclature being notable from table 1. [table] The cell numbers stated in tables 2 to 4 refer to each 1,000 cells examined in groups V1 and V2. Table 3 lists the surface protein combinations which only occur in the untreated Karpas cells and are never found in the actinonin-treated Karpas cells. The number of protein combinations listed in this table 3 amounts to 131. Finally, table 4 exclusively lists those surface protein combinations which occur exclusively in the actinonin-treated Karpas cells. It may be gathered from tables 2 to 4 that, if one examines merely 18 proteins of the 30 proteins, a total of 394 different surface protein combinations will occur, with a total of 334 different combinations occurring in the untreated cells and a total of 263 different combinations being detected in the treated cells.

For `CCCCC[C@H](CC(=O)NO)C(=O)N[C@H](C(=O)N1CCC[C@H]1CO)C(C)C` [actinonin], the “V2 no. of cells” value (protein code No. 54, proteins 1-18 binary 011000001100001100) was 1.5 1/1OOO, the “V2 no. of cells” value (protein code No. 55, proteins 1-18 binary 001000010100001000) was 2.0 1/1OOO and the “V2 no. of cells” value (protein code No. 57, proteins 1-18 binary 101100110111011000) was 2.4 1/1OOO. For the same molecule, the “V2 no. of cells” value (protein code No. 58 (first line so numbered), proteins 1-18 binary 001100011101001000) was 1.7 1/1OOO, the “V2 no. of cells” value (protein code No. 58 (second line so numbered), proteins 1-18 binary 000000011101000000) was 2.9 1/1OOO and the “V2 no. of cells” value (protein code No. 59, proteins 1-18 binary 101100010111001000) was 1.5 1/1OOO. For the same molecule, the “V2 no. of cells” value (protein code No. 60, proteins 1-18 binary 001000000101001000) was 1.5 1/1OOO, the “V2 no. of cells” value (protein code No. 61, proteins 1-18 binary 000000010111001000) was 1.6 1/1OOO and the “V2 no. of cells” value (protein code No. 62, proteins 1-18 binary 001000000001001000) was 0.6 1/1OOO. For the same molecule, the “V2 no. of cells” value (protein code No. 63, proteins 1-18 binary 000000010100001000) was 1.6 1/1OOO, the “V2 no. of cells” value (protein code No. 64, proteins 1-18 binary 000000011001000000) was 2.1 1/1OOO and the “V2 no. of cells” value (protein code No. 65, proteins 1-18 binary 000000000011000000) was 0.7 1/1OOO. For the same molecule, the “V2 no. of cells” value (protein code No. 66, proteins 1-18 binary 101000010101011000) was 1.0 1/1OOO, the “V2 no. of cells” value (protein code No. 67, proteins 1-18 binary 001100011111011000) was 1.8 1/1OOO and the “V2 no. of cells” value (protein code No. 68, proteins 1-18 binary 000000000010000000) was 0.1 1/1OOO. The “V2 no. of cells” value (protein code No. 69, proteins 1-18 binary 001000000011000000) was 1.2 1/1OOO, the “V2 no. of cells” value (protein code No. 70, proteins 1-18 binary 010000001100000100) was 1.5 1/1OOO and the “V2 no. of cells In 1/1OOO” value (surface protein combination No. 93, binary code 011100011101001000) was 0.7 1/1OOO. The “V2 no. of cells In 1/1OOO” value (surface protein combination No. 94, binary code 000000011000000000) was 1.0 1/1OOO, the “V2 no. of cells In 1/1OOO” value (surface protein combination No. 95, binary code 000000001101000000) was 1.4 1/1OOO and the “V2 no. of cells In 1/1OOO” value (surface protein combination No. 96, binary code 001100011101011000) was 0.3 1/1OOO. The “V2 no. of cells In 1/1OOO” value (surface protein combination No. 97, binary code 011000011101001100) was 0.7 1/1OOO, the “V2 no. of cells In 1/1OOO” value (surface protein combination No. 98, binary code 011000011100001100) was 0.9 1/1OOO and the “V2 no. of cells In 1/1OOO” value (surface protein combination No. 99, binary code 000000011101001000) was 0.9 1/1OOO. For the same molecule, the “V2 no. of cells In 1/1OOO” value (surface protein combination No. 100, binary code 010000001000000000) was 0.3 1/1OOO, the “V2 no. of cells In 1/1OOO” value (surface protein combination No. 101, binary code 010000011101000000) was 0.5 1/1OOO and the “V2 no. of cells In 1/1OOO” value (surface protein combination No. 102, binary code 001100010101011100) was 0.6 1/1OOO. For the same molecule, the “V2 no. of cells In 1/1OOO” value (surface protein combination No. 103, binary code 011000011001000000) was 0.7 1/1OOO, the “V2 no. of cells In 1/1OOO” value (surface protein combination No. 104, binary code 001000001001000000) was 0.8 1/1OOO and the “V2 no. of cells In 1/1OOO” value (surface protein combination No. 105, binary code 000000010111000000) was 0.9 1/1OOO. For the same molecule, the “V2 no. of cells In 1/1OOO” value (surface protein combination No. 107, binary code 000100010001001000) was 0.2 1/1OOO, the “V2 no. of cells In 1/1OOO” value (surface protein combination No. 109, binary code 000100000000000000) was 0.6 1/1OOO and the “V2 no. of cells In 1/1OOO” value (surface protein combination No. 110, binary code 011000011111001000) was 0.8 1/1OOO. For the same molecule, the “V2 no. of cells In 1/1OOO” value (surface protein combination No. 111, binary code 001000000100000000) was 0.8 1/1OOO, the “V2 no. of cells In 1/1OOO” value (surface protein combination No. 112, binary code 101000010111001000) was 0.2 1/1OOO and the “V2 no. of cells In 1/1OOO” value (surface protein combination No. 113, binary code 011000011111011000) was 0.2 1/1OOO. For the same molecule, the “V2 no. of cells In 1/1OOO” value (surface protein combination No. 114, binary code 011000001100000000) was 0.2 1/1OOO, the “V2 no. of cells In 1/1OOO” value (surface protein combination No. 115, binary code 001000000111001000) was 0.3 1/1OOO and the “V2 no. of cells In 1/1OOO” value (surface protein combination No. 116, binary code 101100010101001000) was 0.6 1/1OOO. For the same molecule, the “V2 no. of cells In 1/1OOO” value (surface protein combination No. 117, binary code 101100010011011000) was 0.6 1/1OOO, the “V2 no. of cells In 1/1OOO” value (surface protein combination No. 118, binary code 101100110111011100) was 0.7 1/1OOO and the “V2 no. of cells In 1/1OOO” value (surface protein combination No. 119, binary code 000000010010000000) was 0.1 1/1OOO. The “V2 no. of cells In 1/1OOO” value (surface protein combination No. 120, binary code 011100011111011000) was 0.2 1/1OOO, the “V2 no. of cells In 1/1OOO” value (surface protein combination No. 121, binary code 001000011011001000) was 0.2 1/1OOO and the “V2 no. of cells In 1/1OOO” value (surface protein combination No. 122, binary code 011000001100000100) was 0.3 1/1OOO. The “V2 no. of cells In 1/1OOO” value (surface protein combination No. 123, binary code 000000001100001000) was 0.3 1/1OOO, the “V2 no. of cells In 1/1OOO” value (surface protein combination No. 124, binary code 110000001100001100) was 0.5 1/1OOO and the “V2 no. of cells In 1/1OOO” value (surface protein combination No. 125, binary code 010000011100001000) was 0.5 1/1OOO. For the same molecule, the “V2 no. of cells In 1/1OOO” value (surface protein combination No. 126, binary code 001000110111011000) was 0.5 1/1OOO, the “V2 no. of cells In 1/1OOO” value (surface protein combination No. 127, binary code 001000011111000000) was 0.5 1/1OOO and the “V2 no. of cells In 1/1OOO” value (surface protein combination No. 128, binary code 111000001100001100) was 0.7 1/1OOO. For the same molecule, the “V2 no. of cells In 1/1OOO” value (surface protein combination No. 129, binary code 011000011100001000) was 0.7 1/1OOO, the “V2 no. of cells In 1/1OOO” value (surface protein combination No. 130, binary code 101100010101011100) was 0.2 1/1OOO and the “V2 no. of cells In 1/1OOO” value (surface protein combination No. 131, binary code 101000010101001000) was 0.3 1/1OOO. For the same molecule, the “V2 no. of cells In 1/1OOO” value (surface protein combination No. 134, binary code 010000011100001100) was 0.5 1/1OOO, the “V2 no. of cells In 1/1OOO” value (surface protein combination No. 135, binary code 010000011100000000) was 0.5 1/1OOO and the “V2 no. of cells In 1/1OOO” value (surface protein combination No. 136, binary code 001100010101001100) was 0.5 1/1OOO. For the same molecule, the “V2 no. of cells In 1/1OOO” value (surface protein combination No. 137, binary code 001100000000001000) was 0.5 1/1OOO, the “V2 no. of cells In 1/1OOO” value (surface protein combination No. 138, binary code 000000001001001000) was 0.6 1/1OOO and the “V2 no. of cells In 1/1OOO” value (surface protein combination No. 139, binary code 011000001101000000) was 0.1 1/1OOO. For the same molecule, the “V2 no. of cells In 1/1OOO” value (surface protein combination No. 140, binary code 000000000011001000) was 0.1 1/1OOO, the “V2 no. of cells In 1/1OOO” value (surface protein combination No. 141, binary code 101000010111011100) was 0.2 1/1OOO and the “V2 no. of cells In 1/1OOO” value (surface protein combination No. 142, binary code 001100000101001000) was 0.2 1/1OOO. The “V2 no. of cells In 1/1OOO” value (surface protein combination No. 143, binary code 011100011111001000) was 0.3 1/1OOO, the “V2 no. of cells In 1/1OOO” value (surface protein combination No. 144, binary code 001100010111000000) was 0.3 1/1OOO and the “V2 no. of cells In 1/1OOO” value (surface protein combination No. 145, binary code 001000000100001000) was 0.3 1/1OOO. For the same molecule, the “V2 no. of cells In 1/1OOO” value (surface protein combination No. 146, binary code 011000011001001000) was 0.5 1/1OOO, the “V2 no. of cells In 1/1OOO” value (surface protein combination No. 147, binary code 111100011100011100) was 0.1 1/1OOO and the “V2 no. of cells In 1/1OOO” value (surface protein combination No. 148, binary code 110000001100011100) was 0.1 1/1OOO. The “V2 No. of cells In 1/1000, total” value (total over the 60 combinations occurring exclusively in actinonin-treated Karpas cells) was 9.1 1/1000.
